Measured values reported in US11612586B2, “Indole regulation of antigen presenting cells” (THE TEXAS A&M UNIVERSITY SYSTEM, priority 2016, dated 2023).

Assays:
TNF = TNF production in splenic macrophages ex vivo; type: cell-based, mouse; settings: indole overnight
Procedure: Similarly, the ex vivo indole conditioning of splenocytes was repeated with tissues from AhR-deficient and wild-type mice and analyzed TNF production. […] Importantly, in this set of experiments splenocytes were stimulated with LPS, heat-killed S. typhimurium, and CpG. […] Specifically, BMDMs were generated from WT or AhR-KO mice and treated with indole (1 mM) or DMF control for 18 hours. BMDMs were then stimulated with IL-6 (10 ng/ml) for the given times and stained for phospho-Stat3, which was detected by flow cytometry.

naïve CD4+CD25− T cells = assay: DC-T cell co-culture without cell contact (Transwell): Treg induction; type: cell-based, mouse; settings: exogenous TGF-β added, 3 days
CCR7 = CCR7 surface expression on BMDCs; type: cell-based, mouse
Procedure: FIG. 14 graphically illustrates that indole upregulates CCR7 expression in DCs. Flow cytometric analysis were performed on BMDCs cultured from day 3 in the presence of indole (1 mM), RA (1 uM), or DMF control and either surface stained for CCR7 expression directly or treated with LPS (1 ug/ml) for 24 hours prior to CCR7 staining.
Encountering maturation-inducing stimuli induces an upregulation of the chemokine receptor CCR7 in DCs. This shift promotes DC migration from peripheral tissues to the lymph nodes to present captured antigen. CCR7 expression facilitates this migration by rendering DCs sensitive to the chemoattractants, CCL19 and CCL21, which direct DCs to T cell areas of lymphoid tissues. […] Exposure to LPS is a DC-activating signal known to upregulate CCR7 expression in order to prime DCs for lymph node entry. Consistent with the literature, exposure to LPS for 24 hours further induced CCR7 expression in our BMDC cultures overall. Here, indole-conditioned DCs once again expressed a higher level of CCR7 expression compared to controls by over 3-fold in magnitude (FIG. 14).

IL-12 [1] = assay: IL-12 production in BMDCs, intracellular staining, flow cytometry; type: cell-based, mouse
Procedure: Intracellular staining was performed to assess TNF (FIG. 3A) and IL-12 (FIG. 3B) production.
(§1) Briefly, bone marrow was harvested from femurs of mice and cultured for 7 days in the presence of DC-skewing cytokines, GM-CSF and IL-4. […] The pro-inflammatory cytokines, IL-6 and IL-12, were specifically queried. […] Immune cells communicate largely through the production of soluble factors including cytokines, and DCs detect these signals and determine their effector functions accordingly.
The inventors performed a series of assays where bone marrow derived macrophages (BMDMs), bone marrow derived dendritic cells (BMDCs), and splenic dendritic cells (splenic DCs), were exposed to a series of TDMMs, including indole, indole-3-acetate (I3AT), 5-hydroxyindole (5HI), and indole-3-pyruvate (I3P), as well as indole-3-carbinol (I3C; a plant derived compound) to be used for a positive control (1 mM for 24 hours). The BMDMs and BMDCs were stimulated with LPS for 4 hours and assayed at day 7 for expression of various pro-inflammatory cytokines. In a similar assay, the BMDMs and BMDCs were stimulated with LPS or CpG, respectively, for 15 minutes and assayed for pAKT and pERK signaling, which is a reflection of pro-inflammatory response.

IL-12 [2] = assay: IL-12 production in splenic CD11c+ DCs ex vivo; settings: indole overnight, LPS or heat-killed S. typhimurium
Thy1.2+CD4+ T cells = assay: In vivo T cell activation by conditioned, OVA-loaded BMDCs transferred to B6-Thy1.1 mice; design: species or system mouse; settings: mice receiving BMDCs conditioned with indole
Excerpt: FIGS. 17A-17C graphically illustrate that indole-conditioned DCs induce lower T cell activation overall but a greater proportion of Tregs in spleen compared to control. Naïve CD4+CD25− T cells from OT-II (Thy1.2) mice and OVA323-339-loaded BMDCs conditioned with indole, RA, or DMF were transferred to B6-Thy1.1 mice. After 7 days, tissues were harvested and stained for flow cytometric analysis. Data includes total expansion of Thy1.2+CD4+ T cells (FIG. 17A), percentage of Foxp3+CD4+ T cells of expanded T cells (FIG. 17B), and MFI of Foxp3+CD4+ T cells of expanded T cells (FIG. 17C). n=4 mice/group.
To address the functionality of indole DC-induced Tregs, an in vivo T cell activation system was employed. The pan T cell surface antigen, Thy1, has congenic alleles, Thy1.1 and Thy1.2, which can be used to differentiate donor and recipient T cells. Naïve CD4+CD25− T cells were purified from OT-II (Thy1.2) mice, then transferred them to recipient Thy1.1 mice. Indole-treated, OVA323-339 peptide-loaded BMDCs (Thy1.2) was subsequently transferred to the same recipient Thy1.1 mice. After five days, the recipient mice were sacrificed to assess activation of the transferred naïve T cells, which could only be activated by the transferred, peptide-loaded DCs and are identifiable by the Thy1.2 T cell surface antigen. Cellular populations from the spleen, mesenteric lymph nodes, and pooled distal lymph nodes (axial and inguinal), were examined limiting the analysis to CD4+ T cells bearing the Thy1.2 allele (donor-derived). Importantly, the DCs transferred without OVA peptide loading (negative control) induced virtually undetectable T cell activation. This confirms the specificity of the present model, ensuring that T cell activation in Thy1.2 T cells was solely due to interaction with our experimental BMDCs.
Naïve CD4+CD25− T cells from spleens and lymph nodes of OT-II mice were isolated by column purification as described above and resuspended in sterile Hanks Balanced Saline Solution (HBSS). […]

IL-6 = IL-6 production in BMDCs, intracellular staining, flow cytometry; type: cell-based, mouse; settings: indole 24 hours (overnight), LPS 1 ug/ml 4 hours
Excerpt: as §1

HeLa cells = assay: Salmonella invasion of indole-treated HeLa cells (colonization resistance); type: cell-based; settings: host cells treated with indole

## c1ccc2[nH]ccc2c1 [Indole, indole]
TNF; splenic macrophages from WT or AhR-KO mice, LPS, HK-STM or CpG 6 hours
  inhibition of TNF production: marked inhibition
TNF; splenic macrophages, LPS or heat-killed S. typhimurium
  inhibition of TNF production compared to solvent controls: 75%
naïve CD4+CD25− T cells
  Treg induction by conditioned DCs without cell contact over solvent controls: did not enhance Treg skew
CCR7; BMDCs, indole 1 mM from day 3, LPS for 24 hours
  CCR7 expression compared to controls: over 3 fold
CCR7; day 7 freshly harvested BMDCs, indole 1 mM from day 3
  increase in CCR7 expression over RA or solvent controls: approximately 5 fold
IL-12 [1]; BMDCs exposed to indole from day 3 of 7 day culture, LPS stimulation
  reduction in IL-12: 40%
IL-12 [1]; BMDCs, 1 mM TDMM 24 hours, LPS (1 ug/ml) 4 hours
  IL-12: ↓↓
IL-12 [1]; BMDCs, indole 24 hours (overnight), LPS 1 ug/ml 4 hours
  inhibition of IL-12 production: ≥ 2 fold
IL-12 [2]
  inhibition of IL-12 production: ≥ 2 fold
Thy1.2+CD4+ T cells
  Foxp3 mean fluorescence intensity of splenic Tregs: higher mean fluorescence intensity
  Tregs in the spleen of newly activated T cells compared to RA-DCs or DMF-DCs: two times more Tregs
Thy1.2+CD4+ T cells; spleen, mesenteric and distal lymph nodes
  T cell expansion, less than controls: more than 2 fold
IL-6
  inhibition of IL-6 production: ≥ 2 fold
HeLa cells
  reduction of Salmonella invasion of indole-treated HeLa cells: 70%
